Results reported in patent publication US20250064990A1, “METHODS OF SCREENING FOR VMAT2 INHIBITORS” (Neurocrine Biosciences, Inc., priority 2021, published 2025).

Molecular target: VMAT2 (Homo sapiens, UniProt Q05940)
Assay: VMAT2 target occupancy of single oral doses of NBI-750142 in healthy adult male subjects, [^18F]AV-133 PET
Assay type: in vivo
Design: from tissue; host or cells: brain (caudate, putamen, midbrain) of living healthy adult male subjects
Details: for NBI-750142 T1 Occ / [^18F]AV-133 BPND T1: T1 ([…] post dose); for NBI-750142 T2 Occ / [^18F]AV-133 BPND T2: T2 (18 h post dose)
Description: This study was conducted to evaluate the brain penetration and target engagement of VMAT2 after single oral doses of NBI-750142 in healthy subjects. This PET study assessed the engagement of NBI-750142 with VMAT2 in vivo at two time-points after dosing. A sequential-cohort design allowed for the safety, target-occupancy, and available pharmacokinetic (PK) data from each prior cohort to be evaluated before selection of the dose level for the next cohort. A range of NBI-750142 doses (max. 200 mg) were studied to explore the relationship between NBI-750142 plasma concentrations and engagement of VMAT2 in selected brain regions.
This was a Phase 1 single-center, open-label, single-dose, target occupancy study of NBI-750142 in up to 12 healthy male subjects using [^18F]AV-133 PET imaging. […] A total of 12 subjects completed the study. Subjects enrolled in the study were required to report to the clinical research site for 4 separate occasions, detailed below.
Two subjects were initially enrolled in each dose cohort. Each subject received one brain structural magnetic resonance imaging (MRI) scan during screening and up to 3 [^18F]AV-133 PET scans (1 baseline and up to 2 follow-up scans after receiving a single dose of NBI-750142). Subjects enrolled in the first cohort received a single dose of 100 mg of NBI-750142 orally on Day 1. PET scans occurred on Day 1 at approximately 1.5 hours post NBI-750142 dose and on Day 2 at approximately 18 hours post NBI-750142 dose. Subjects were then discharged from the study center after all Day 3 procedures and assessments were completed.
Subjects were administered a single dose of [^18F]AV-133 intravenously over 3 minutes using an infusion pump (approximately 3.33 mL per minute) through a venous catheter followed by a 10 mL saline flush. Dynamic PET imaging of the brain was acquired over 120 min following radiotracer injection on a Siemens Biograph 6 PET/CT camera according to the following protocol: • CT scan of the head • [^18F]AV-133 injection (T=0 min) • Emission scan: 6×30 sec, 4×1 min, 4×2 min, 21×5 min (0-120 min)
Reconstructed PET imaging data volumes were transferred to the image processing PMOD software package (PMOD Technologies, Zurich, Switzerland) where the images were motion and decay corrected, realigned onto the subject MRI and subsequently normalized into the standard MNI (Montreal Neurological Institute) space where volumes of interest (VOIs) were defined from a template (see e.g., Hammers et al, Adult brain maximum probability map (“Hammersmith atlas”; n30r83) in MNI space. 2008). The subject MRI was segmented into grey matter, white matter, and CSF maps. Average activity concentration (kBq/cc) within each VOI, constrained to grey matter voxels for cortical regions, were determined and time activity curves (TACs) were generated. TACs were extracted from the following VOIs: caudate and putamen (striatum), midbrain, cerebellar and occipital cortices. TACs and were expressed in standard uptake value (SUV) units (g/mL) by normalizing with the weight of the subject and the injected dose. The occipital cortex was used as a reference region to normalize activity in target regions to generate SUVr images. For visualization, standard uptake value ratio (SUVr) images were computed between 60-120 min. Non-displaceable binding potential (BPND), the primary outcome measure, was estimated with noninvasive Logan graphical analysis (NI-LGA, t*=20 min) in caudate, putamen and midbrain using the occipital cortex as the reference region. Percent measured occupancy (OM) of NBI-750142 (drug) by region was computed according to the Equation 3-1 at each of the post-dose timepoints, T1 (1.5 h post dose) and T2 (18 h post dose).
Post-hoc exploratory analysis applied an Upregulation model (Equation 3-3), in order to account for the apparent ‘negative occupancy’ values observed at T2 (BPND values at T2 were unexpectedly higher than corresponding BPND values at baseline). […]

[1] = Cohort 1, 100 mg, Subject 1, Caudate
[2] = Cohort 1, 100 mg, Subject 1, Midbrain
[3] = Cohort 1, 100 mg, Subject 1, Putamen
[4] = Cohort 1, 100 mg, Subject 2, Caudate
[5] = Cohort 1, 100 mg, Subject 2, Midbrain
[6] = Cohort 1, 100 mg, Subject 2, Putamen
[7] = Cohort 2, 200 mg, Subject 1, Caudate
[8] = Cohort 2, 200 mg, Subject 1, Midbrain
[9] = Cohort 2, 200 mg, Subject 1, Putamen
[10] = Cohort 2, 200 mg, Subject 2, Caudate
[11] = Cohort 2, 200 mg, Subject 2, Midbrain
[12] = Cohort 2, 200 mg, Subject 2, Putamen
[13] = Cohort 3, 60 mg, Subject 1, Caudate
[14] = Cohort 3, 60 mg, Subject 1, Midbrain
[15] = Cohort 3, 60 mg, Subject 1, Putamen
[16] = Cohort 3, 60 mg, Subject 2, Caudate
[17] = Cohort 3, 60 mg, Subject 2, Midbrain
[18] = Cohort 3, 60 mg, Subject 2, Putamen
[19] = Cohort 4, 60 mg, Subject 1, Caudate

Chain of VMAT2 (Q05940 whole entry): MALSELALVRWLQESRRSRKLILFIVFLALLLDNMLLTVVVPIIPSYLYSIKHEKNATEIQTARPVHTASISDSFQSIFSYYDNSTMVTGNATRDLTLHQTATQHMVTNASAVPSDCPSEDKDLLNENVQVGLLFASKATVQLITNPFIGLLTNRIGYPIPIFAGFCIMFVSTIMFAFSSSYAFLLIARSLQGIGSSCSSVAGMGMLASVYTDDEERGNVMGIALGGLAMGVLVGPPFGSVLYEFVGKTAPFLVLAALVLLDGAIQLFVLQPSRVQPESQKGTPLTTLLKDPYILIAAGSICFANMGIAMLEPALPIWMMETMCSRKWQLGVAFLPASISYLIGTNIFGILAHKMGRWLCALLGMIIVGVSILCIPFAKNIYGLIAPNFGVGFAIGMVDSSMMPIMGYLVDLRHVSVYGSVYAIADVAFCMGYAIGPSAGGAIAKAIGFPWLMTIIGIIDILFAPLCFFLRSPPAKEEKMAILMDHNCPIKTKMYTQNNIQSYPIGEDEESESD

Q: Which results are given for `COc1cc2c(cc1OC)[C@H]1CN(C)[C@H](CC(C)(C)C)CN1CC2` [NBI-750142]?
A: [^18F]AV-133 striatal uptake at T1 vs baseline (10 mg, cohorts 5A and 5B): did not show reduction in uptake; [^18F]AV-133 striatal uptake at T1 vs baseline (60 mg, cohorts 3 and 4): showed variability between subjects; [^18F]AV-133 striatal uptake at T1 vs baseline (100 mg and 200 mg doses, both subjects): markedly reduced uptake; NBI-750142 T1 Occ [1]: 72%; [^18F]AV-133 BPND T1 [1]: 0.34; NBI-750142 T2 Occ [1]: 3%; [^18F]AV-133 BPND T2 [1]: 1.15; NBI-750142 T1 Occ [2]: 59%; [^18F]AV-133 BPND T1 [2]: 0.15; NBI-750142 T2 Occ [2]: 5%; [^18F]AV-133 BPND T2 [2]: 0.34; NBI-750142 T1 Occ [3]: 54%; [^18F]AV-133 BPND T1 [3]: 0.95; NBI-750142 T2 Occ [3]: −2%; [^18F]AV-133 BPND T2 [3]: 2.11; NBI-750142 T1 Occ [4]: 80%; [^18F]AV-133 BPND T1 [4]: 0.38; NBI-750142 T2 Occ [4]: 15%; [^18F]AV-133 BPND T2 [4]: 1.60; NBI-750142 T1 Occ [5]: 60%; [^18F]AV-133 BPND T1 [5]: 0.20; NBI-750142 T2 Occ [5]: 30%; [^18F]AV-133 BPND T2 [5]: 0.36; NBI-750142 T1 Occ [6]: 73%; [^18F]AV-133 BPND T1 [6]: 0.66; NBI-750142 T2 Occ [6]: 13%; [^18F]AV-133 BPND T2 [6]: 2.09; Occupancy at T2 in striatum (Cohort 1 at 100 mg, subject 1, 18 h post dose): 1%; Occupancy at T2 in striatum (Cohort 1 at 100 mg, subject 2, 18 h post dose): 14%; NBI-750142 T1 Occ [7]: 75%; [^18F]AV-133 BPND T1 [7]: 0.40; NBI-750142 T2 Occ [7]: −30%; [^18F]AV-133 BPND T2 [7]: 2.06; NBI-750142 T1 Occ [8]: 63%; [^18F]AV-133 BPND T1 [8]: 0.14; NBI-750142 T2 Occ [8]: −33%; [^18F]AV-133 BPND T2 [8]: 0.49; NBI-750142 T1 Occ [9]: 69%; [^18F]AV-133 BPND T1 [9]: 0.74; NBI-750142 T2 Occ [9]: −26%; [^18F]AV-133 BPND T2 [9]: 3.00; NBI-750142 T1 Occ [10]: 72%; [^18F]AV-133 BPND T1 [10]: 0.51; NBI-750142 T2 Occ [10]: −7%; [^18F]AV-133 BPND T2 [10]: 1.91; NBI-750142 T1 Occ [11]: 60%; [^18F]AV-133 BPND T1 [11]: 0.23; NBI-750142 T2 Occ [11]: 7%; [^18F]AV-133 BPND T2 [11]: 0.53; NBI-750142 T1 Occ [12]: 67%; [^18F]AV-133 BPND T1 [12]: 0.88; NBI-750142 T2 Occ [12]: −5%; [^18F]AV-133 BPND T2 [12]: 2.81; Occupancy at T2 in striatum (Cohort 2 at 200 mg, subject 1, 18 h post dose): −28%; Occupancy at T2 in striatum (Cohort 2 at 200 mg, subject 2, 18 h post dose): −6%; NBI-750142 T1 Occ [13]: 37%; [^18F]AV-133 BPND T1 [13]: 1.04; NBI-750142 T2 Occ [13]: −15%; [^18F]AV-133 BPND T2 [13]: 1.93; NBI-750142 T1 Occ [14]: 47%; [^18F]AV-133 BPND T1 [14]: 0.20; NBI-750142 T2 Occ [14]: −5%; [^18F]AV-133 BPND T2 [14]: 0.39; NBI-750142 T1 Occ [15]: 34%; [^18F]AV-133 BPND T1 [15]: 1.31; NBI-750142 T2 Occ [15]: −12%; [^18F]AV-133 BPND T2 [15]: 2.22; NBI-750142 T1 Occ [16]: 6%; [^18F]AV-133 BPND T1 [16]: 1.62; NBI-750142 T2 Occ [16]: −20%; [^18F]AV-133 BPND T2 [16]: 2.07; NBI-750142 T1 Occ [17]: 16%; [^18F]AV-133 BPND T1 [17]: 0.44; NBI-750142 T2 Occ [17]: −22%; [^18F]AV-133 BPND T2 [17]: 0.64; NBI-750142 T1 Occ [18]: 3%; [^18F]AV-133 BPND T1 [18]: 2.14; NBI-750142 T2 Occ [18]: −22%; [^18F]AV-133 BPND T2 [18]: 2.70; Occupancy at T2 in striatum (Cohort 3 at 60 mg, subject 1, 18 h post dose): −14%; Occupancy at T2 in striatum (Cohort 3 at 60 mg, subject 2, 18 h post dose): −21%; NBI-750142 T1 Occ [19]: 50%; [^18F]AV-133 BPND T1 [19]: 0.78; NBI-750142 T2 Occ [19]: −8%
